Experiments:
washed human platelets [1] = assay: Platelet ATP secretion, luminescence-based assay; assay type: cell-based; conditions: for Platelet ATP secretion induced by peptide alone (basal, no agonist) / Effect on TRAP-induced platelet ATP secretion: 50 µM peptide, washed human platelets; for Platelet ATP secretion induced by peptide alone (basal, no agonist): 12 min at 37°C, without TRAP, n = 6, figure 2; for Effect on TRAP-induced platelet ATP secretion: preincubated 12 min at 37°C, then 4 µM TRAP for 3 min, luminescence arb. units, figures 2, 3c,d; for Effect on TRAP-induced platelet ATP secretion, alanine scan and control peptides of KEPLLP: 12.5 µM peptide, n = 4 donors, figure 5a,b
Procedure: Washed platelets (WPs) were prepared from blood samples collected from healthy donors who were free of medications known to affect platelet function for at least 10 days, as previously described. Written, informed consent was obtained from all participants in line with the Declaration of Helsinki. In brief, venous blood was drawn into 15% (v/v) of acid-citrate-dextrose (ACD) anticoagulant (38 mM citric acid anhydrous, 75 mM sodium citrate, 124 mM dextrose). Blood was centrifuged at 150g for 10 min and the platelet-rich plasma (PRP) was collected. PRP was further centrifuged at 720g for 10 min in the presence of 1 µM prostaglandin E1 (PGE1). The platelet pellet was resuspended in buffer A (6 mM dextrose, 130 mM NaCl, 9 mM NaHCO3, 10 mM sodium citrate, 10 mM Tris base, 3 mM KCl, 0.81 mM KH2PO4 and 0.9 mM MgCl2·6H2O, pH 7.4). The washed platelet count was adjusted to 3 × 10^8 platelets ml^−1 and supplemented with 1.8 mM CaCl2 immediately prior to use.
ATP secretion was measured using a luminescence-based assay, as previously described. Peptides, buffer or vehicle control, in a final volume of 10 µl, were dispensed into white 96-well plates. To this, 70 µl of WPs were gently added. Platelets were incubated with peptides at 37°C for 12 min (under shaking) in the Perkin Elmer 1420 96-well plate reader. Platelet agonist (TRAP; 4 µM; 10 µl) was then added to induce platelet ATP secretion. The suspension (peptide + platelets + agonist) was incubated for 3 min at 37°C with constant shaking. Finally, 10 µl of ATP detecting reagent chronolume (Labmedics, UK) was dispensed into each well and luminescence was measured using the Perkin Elmer 1420 96-well plate reader. Platelet ATP secretion response to peptides was measured in the presence and absence of agonist. Data were expressed as the amount of ATP secretion in luminescence arbitrary units (arb. units). Data are represented as the mean ± standard error mean (s.e.m.) of at least four independent donors.

washed human platelets [2] = assay: Platelet ATP secretion, luminescence-based assay; assay type: cell-based; conditions: TRAP 0.25 to 16 µM for 3 min at 37°C; n = 4 donors; figure S1

CCCCCCCCCCCCCCCC(=O)NCCCOCCOCCOCCCNC(=O)CCC(N)=O [palmitic acid connected to a Ttds linker, reference compound]
Platelet ATP secretion induced by peptide alone (basal, no agonist) (washed human platelets [1]): no effect
Effect on TRAP-induced platelet ATP secretion (washed human platelets [1]; n = 6 donors): no effect

CCCCCCCCCCCCCCCC(=O)O [palmitic acid, reference compound]
Platelet ATP secretion induced by peptide alone (basal, no agonist) (washed human platelets [1]): no effect
Effect on TRAP-induced platelet ATP secretion (washed human platelets [1]; n = 6 donors): no effect

EEPLLP [KEPLLP with lysine replaced with glutamic acid, palmitoylated and amidated]
Effect on TRAP-induced platelet ATP secretion, alanine scan and control peptides of KEPLLP (washed human platelets [1]; 4 µM TRAP): loss of inhibitory effect

EKPLLP [N-terminus reverse charge peptide of KEPLLP, palmitoylated and amidated]
Effect on TRAP-induced platelet ATP secretion, alanine scan and control peptides of KEPLLP (washed human platelets [1]; 4 µM TRAP): retained partial inhibitory activity

KEPAAP [KEPLLP with LL replaced with AA, palmitoylated and amidated]
Effect on TRAP-induced platelet ATP secretion, alanine scan and control peptides of KEPLLP (washed human platelets [1]; 4 µM TRAP): loss of peptide activity

KEPLAP [KEPLLP with one leucine replaced with alanine, palmitoylated and amidated]
Effect on TRAP-induced platelet ATP secretion, alanine scan and control peptides of KEPLLP (washed human platelets [1]; 4 µM TRAP): loss of peptide activity

KEPLLP [Non-palmitoylated KEPLLP, KEPLLP peptide with no palmitoylation]
Effect of peptide with no palmitoylation on TRAP-induced platelet ATP secretion (washed human platelets [1]; 50 µM peptide for 12 min at 37°C before 4 µM TRAP, n = 4, figure S4): failed to inhibit

KEPLLP [short motif truncated from E-cad 2, N-terminally palmitoylated and C-terminally amidated]
Effect of truncated E-cad 2 peptides on TRAP-induced platelet ATP secretion (washed human platelets [1]; 4 µM TRAP, n = 6 donors, figure 4a): most potent inhibitor
Lowest peptide concentration that significantly inhibited TRAP-induced platelet ATP secretion (washed human platelets [1]; dose-response study, 4 µM TRAP, n = 4, figure 4b): 12.5 µM

PLLPKE [randomly scrambled peptide of KEPLLP, palmitoylated and amidated]
Effect on TRAP-induced platelet ATP secretion, alanine scan and control peptides of KEPLLP (washed human platelets [1]; 4 µM TRAP): failed to inhibit

SFLLRN [TRAP, reference compound]
ATP secretion response at 4 µM TRAP relative to the maximal response (washed human platelets [1]; 4 µM TRAP, figure S1): approximately 80%
TRAP concentration at which ATP secretion is maximal (washed human platelets [2]): 16 µM
